Results from US20250019339A1, “SOLVENT COMPOUNDS FOR USE AS REPLACEMENTS FOR SLOW EVAPORATING SOLVENTS” (TBF ENVIRONMENTAL TECHNOLOGY INC., priority 2018, published 2025).

Tests used:
Assay type in all cases: physicochemical
Evaporation rate = assay: Evaporation rate
Kauri-Butanol value = assay: Kauri-Butanol value
[1] = Flash point, PMCC closed cup; settings: PMCC (Penske Martin Closed Cup)
Procedure: (§1) (420.8° F.) • Flash Point: 85.5° C.

Specific gravity = assay: Specific gravity
[2] = Sustained combustion tests
Procedure: as §1

Vapour pressure = settings: @25° C.
Boiling point = assay: Boiling point

CCCCC(CC)COC(=O)OC (stereo not shown) [BibaSol, 2-ethylhexyl methyl carbonate]
Evaporation rate (Evaporation rate): 0.04 | Kauri-Butanol Value (Kauri-Butanol value): 77.5 | Flash Point [1]: 85.5 °C | Specific Gravity (Specific gravity): 0.916 | Sustained combustion [2]: did not sustain combustion | Vapour pressure (Vapour pressure): 0.09 mm Hg | Boiling Point (Boiling point): 216 °C
